Experimental data published in US20260232818A1, “PHARMACEUTICAL COMPOSITIONS COMPRISING PROTEIN COMPLEXES” (Onchilles Pharma, Inc., priority 2023, published 2026).
Blank lines part the entries; values can stand above or below the compound they belong to.

What was measured:
[1] = tested on: human ovarian cancer cells; test: Selective cancer cell-killing in ovarian cancer patient samples, cancer cells; assay type: cell-based; details: 24 hours; Calcein-AM; FIG. 9B
Text: Evaluating selective cancer cell-killing in ovarian cancer patient samples. Cancer and non-cancer cells were isolated from primary tumors, intraperitoneal (IP) fluid, omental adipose tissue (common metastatic site), and blood from 6 ovarian cancer patients. The following cells were isolated and tested: cancer cells (digested tumor with depletion of fibroblasts, CD45+ cells, and […] cells), non-cancer immune cells (digested omental cells with depletion of neutrophils or CD45+ cells from tumor tissue), peripheral blood mononuclear cells (PBMCs; B cells, T cells, monocytes, and NK cells), fibroblasts (isolated from tumor samples using fibroblast isolation kit), and IP cells (composed of >90% CD45+ immune cells, including B, T, myeloid, NK cells). Isolated cells were plated and exposed to A2M:MutF, doxorubicin (standard of care chemotherapy), or oxaliplatin (standard of care chemotherapy) for 24 hours. Cell viability was assessed by Calcein-AM.

[2] = Coagulation Assay (PT, PTT, fibrinogen in plasma after IV injection); assay type: in vivo, Mice; details: mouse plasma 5 min after IV injection of 480 ug
Experimental: Coagulation Assay. Mice were injected with 200 μL of 480 ug of MutF or purified A2M:MutF protein complexes at a 1:2 molar ratio. Blood was collected in sodium citrate tubes and centrifuged at 1500×g for 15 minutes. 300 μl of plasma were frozen and shipped to IDEXX to be analyzed for Prothrombin time, Partial Thromboplastin time, and concentration of Fibrinogen.

[3] = Plasma Protection Assay (MutF activity on AAPV-AMC in plasma); assay type: biochemical; details: mouse plasma; MutF 400 nM; A2M:MutF 1:2; FIG. 3C
Experimental: Plasma Protection Assay. MutF (400 nM) was mixed with 200 nM A2M to reach a 1:2 molar ratio (A2M:MutF), followed by 30 minutes incubation at 37° C. in PBS. A plasma protection assay was performed in 384-black well-coated plate by adding 10 μL of sample with either 10 μL of PBS or 10 μL of mouse plasma samples in duplicates. 20 μL of the substrate AAPV-AMC at a concentration of 100 μM was added. Kinetics were measured on Varioskan LUX: 380 nm ex/460 nm (5 nm bandwidth), 37° C., top, 100 msec, 2 min for 16 reads. Vo was calculated as activity measurement.

Elastin-F = test: Elastin cleavage assay; assay type: biochemical; details: overnight at 37° C.; FIG. 6C
Experimental: Elastin cleavage assay. MutF was mixed with different concentrations of A2M to reach various molar ratios, followed by a 30-minute incubation at 37° C. in PBS. Elastin-F (1:100) was incubated with pre-mixed A2M:MutF protein complexes overnight at 37° C., and the degraded fluorescent signal was measured in the supernatant.

Human fibrinogen = biological target: T1, Human fibrinogen (Homo sapiens, UniProt P02671+P02675+P02679); test: Fibrinogen cleavage assay; assay type: biochemical; details: 1 hr at 37° C.; Western Blot; FIG. 6B
T1 construct: purchased Sigma
T1 sequence (P02671 20-629 limits assumed): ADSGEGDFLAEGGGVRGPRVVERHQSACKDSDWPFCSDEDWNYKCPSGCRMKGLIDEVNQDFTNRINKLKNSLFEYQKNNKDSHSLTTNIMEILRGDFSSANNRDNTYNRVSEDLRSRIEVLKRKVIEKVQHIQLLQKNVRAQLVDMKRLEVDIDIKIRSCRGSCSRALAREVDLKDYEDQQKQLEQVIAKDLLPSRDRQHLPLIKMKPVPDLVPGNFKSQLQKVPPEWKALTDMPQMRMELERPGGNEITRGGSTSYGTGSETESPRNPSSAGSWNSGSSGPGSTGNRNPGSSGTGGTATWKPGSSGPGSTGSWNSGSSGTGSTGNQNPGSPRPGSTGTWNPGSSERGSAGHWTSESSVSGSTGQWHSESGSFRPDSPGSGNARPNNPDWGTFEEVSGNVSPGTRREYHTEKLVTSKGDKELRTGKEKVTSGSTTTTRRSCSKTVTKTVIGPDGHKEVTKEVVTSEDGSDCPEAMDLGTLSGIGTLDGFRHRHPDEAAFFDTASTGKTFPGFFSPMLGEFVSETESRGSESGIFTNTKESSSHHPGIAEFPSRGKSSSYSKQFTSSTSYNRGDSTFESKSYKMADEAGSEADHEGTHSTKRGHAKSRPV
T1 sequence (P02675 31-491): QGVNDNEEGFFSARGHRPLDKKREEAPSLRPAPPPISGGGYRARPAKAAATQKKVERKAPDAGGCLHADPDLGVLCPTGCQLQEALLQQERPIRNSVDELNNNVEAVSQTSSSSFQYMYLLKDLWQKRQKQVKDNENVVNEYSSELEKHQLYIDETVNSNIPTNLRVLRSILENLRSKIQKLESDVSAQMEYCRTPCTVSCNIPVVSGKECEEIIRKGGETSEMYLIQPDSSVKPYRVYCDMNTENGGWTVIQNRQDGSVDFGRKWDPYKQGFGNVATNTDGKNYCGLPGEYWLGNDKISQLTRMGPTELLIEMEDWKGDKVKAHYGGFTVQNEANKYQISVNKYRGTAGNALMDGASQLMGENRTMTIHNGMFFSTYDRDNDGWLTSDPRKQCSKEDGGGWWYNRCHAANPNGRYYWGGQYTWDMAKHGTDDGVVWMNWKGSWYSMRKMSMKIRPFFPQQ
T1 sequence (P02679 27-453): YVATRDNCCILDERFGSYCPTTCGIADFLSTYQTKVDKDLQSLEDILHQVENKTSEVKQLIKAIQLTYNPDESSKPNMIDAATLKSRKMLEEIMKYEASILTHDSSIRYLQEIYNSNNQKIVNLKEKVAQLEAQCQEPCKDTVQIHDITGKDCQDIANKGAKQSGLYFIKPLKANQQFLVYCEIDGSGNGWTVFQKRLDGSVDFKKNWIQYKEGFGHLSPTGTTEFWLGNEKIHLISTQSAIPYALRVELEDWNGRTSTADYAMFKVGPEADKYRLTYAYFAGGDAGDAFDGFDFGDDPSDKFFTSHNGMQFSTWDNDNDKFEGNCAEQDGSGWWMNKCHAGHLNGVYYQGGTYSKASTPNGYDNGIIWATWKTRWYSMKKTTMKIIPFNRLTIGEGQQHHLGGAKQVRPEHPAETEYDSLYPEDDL
Experimental: Fibrinogen cleavage assay. MutF was mixed with different concentrations of A2M to reach various molar ratios, followed by a 30-minute incubation at 37° C. in PBS. Human fibrinogen (Sigma) was incubated with pre-mixed A2M:MutF protein complexes at different molar ratios for 1 hr at 37° C. Samples containing 5 ug of fibrinogen were loaded on 4-15% gel and fibrinogen was detected by Western Blot with an anti-fibrinogen (cell signaling Technology). Gels were imaged by iBright 1500.

Compound: COc1cccc2c1C(=O)c1c(O)c3c(c(O)c1C2=O)C[C@@](O)(C(=O)CO)C[C@@H]3O[C@H]1C[C@H](N)[C@H](O)[C@H](C)O1 [doxorubicin, reference compound]
Killing of cancer cells from chemo-naïve vs chemo-treated patients [1]: reduced killing of cancer cells isolated from chemo-treated relative to chemo-naïve patients

Compound: O=C1[O][Pt]2([NH][C@@H]3CCCC[C@H]3[NH]2)[O]C1=O [oxaliplatin, reference compound]
Killing of cancer cells from chemo-naïve vs chemo-treated patients [1]: reduced killing of cancer cells isolated from chemo-treated relative to chemo-naïve patients

Fibrinogen cleavage (Human fibrinogen): does cleave fibrinogen
Compound: MutF: porcine pancreatic elastase (PPE) protein 'Mutant F', Q211F, SEQ ID NO: 5
Prothrombin time ([2]; FIG. 7A): increases PT and PTT times
Partial Thromboplastin time ([2]; FIG. 7B): increases PT and PTT times
Concentration of fibrinogen in plasma ([2]; FIG. 7C): causes reductions in fibrinogen levels
MutF activity in plasma [3]: plasma inhibits MutF activity
Elastin cleavage (fluorescent signal) (Elastin-F): does cleave elastin
